Measured values published in PubChem BioAssay AID256 (DTP/NCI, 2004).
Several values for one entry are separate records, joined by “and”; a condition that tells them apart may be missing. Identical values can stand only once. Inconclusive results and toxic doses are left out. The calls were made as follows: active = survival T/C of 150% or more; inactive = T/C below 125% in these data.

Tested on: CD2F1 mice, L1210 leukemia ip, survival T/C
Experiment: NCI In Vivo Anticancer Drug Screen. Data for tumor model L1210 Leukemia (intraperitoneal) in CD2F1 (CDF1) mice
Details: endpoint: mean survival time, higher = longer survival
Summary of the method: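 Ratio T/C, where T is the treated-group value and C the vehicle-dosed control value, from mice implanted with a transplantable tumor.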

[1] = dose: 100.0 mg/kg/injection, schedule: Q04DX003 (ip), vehicle: saline
[2] = dose: 200.0 mg/kg/injection, schedule: Q04DX003 (ip), vehicle: saline
[3] = dose: 100.0 mg/kg/injection, schedule: Q01DX009 (ip), vehicle: saline with Tween-80
[4] = dose: 100.0 mg/kg/injection, schedule: Q04DX003 (ip), vehicle: saline with Tween-80
[5] = dose: 200.0 mg/kg/injection, schedule: Q01DX009 (ip), vehicle: saline with Tween-80
[6] = dose: 200.0 mg/kg/injection, schedule: Q04DX003 (ip), vehicle: saline with Tween-80
[7] = dose: 400.0 mg/kg/injection, schedule: Q01DX009 (ip), vehicle: saline with Tween-80
[8] = dose: 400.0 mg/kg/injection, schedule: Q04DX003 (ip), vehicle: saline with Tween-80
[9] = dose: 100.0 mg/kg/injection, schedule: Q04DX002 (ip), vehicle: saline with Tween-80
[10] = dose: 100.0 mg/kg/injection, schedule: Q01DX001 (ip), vehicle: saline with Tween-80
[11] = dose: 200.0 mg/kg/injection, schedule: Q01DX001 (ip), vehicle: saline with Tween-80
[12] = dose: 400.0 mg/kg/injection, schedule: Q01DX001 (ip), vehicle: saline with Tween-80
[13] = dose: 12.5 mg/kg/injection, schedule: Q01DX005 (ip), vehicle: water
[14] = dose: 25.0 mg/kg/injection, schedule: Q01DX005 (ip), vehicle: water
[15] = dose: 50.0 mg/kg/injection, schedule: Q01DX005 (ip), vehicle: water
[16] = dose: 100.0 mg/kg/injection, schedule: Q01DX005 (ip), vehicle: water
[17] = dose: 200.0 mg/kg/injection, schedule: Q01DX005 (ip), vehicle: water
[18] = dose: 25.0 mg/kg/injection, schedule: Q01DX009 (ip), vehicle: saline
[19] = dose: 50.0 mg/kg/injection, schedule: Q01DX009 (ip), vehicle: saline

Measured: T/C

c1nc[nH]n1
inactive: dose: 100.0 mg/kg/injection, schedule: Q01DX009 (ip), vehicle: saline 98 % of control | [1] 95 % of control | dose: 200.0 mg/kg/injection, schedule: Q01DX009 (ip), vehicle: saline 98 % of control | [2] 97 % of control | dose: 400.0 mg/kg/injection, schedule: Q01DX009 (ip), vehicle: saline 93 % of control | dose: 400.0 mg/kg/injection, schedule: Q04DX003 (ip), vehicle: saline 100 % of control

CCOC(=O)CCN1CCCC2(C1)OCCO2
inactive: dose: 12.5 mg/kg/injection, schedule: Q04DX002 (ip), vehicle: saline 109 % of control | dose: 25.0 mg/kg/injection, schedule: Q04DX002 (ip), vehicle: saline 95 % of control | dose: 50.0 mg/kg/injection, schedule: Q04DX002 (ip), vehicle: saline 98 % of control

O=C1CCc2c(Br)cccc21
inactive: [3] 106 % of control | [4] 114 % of control | [5] 101 % of control | [6] 100 % of control | [7] 110 % of control | [8] 101 % of control

C[Si](OP(=O)(O[Si](C)(c1ccccc1)c1ccccc1)N(CCCl)CCCl)(c1ccccc1)c1ccccc1
inactive: dose: 15.63 mg/kg/injection, schedule: Q01DX001 (ip), vehicle: distilled water + Tween-80 104 % of control | dose: 31.25 mg/kg/injection, schedule: Q01DX001 (ip), vehicle: distilled water + Tween-80 97 % of control | dose: 62.5 mg/kg/injection, schedule: Q01DX001 (ip), vehicle: distilled water + Tween-80 101 % of control | dose: 125.0 mg/kg/injection, schedule: Q01DX001 (ip), vehicle: distilled water + Tween-80 95 % of control | dose: 250.0 mg/kg/injection, schedule: Q01DX001 (ip), vehicle: distilled water + Tween-80 97 % of control | dose: 500.0 mg/kg/injection, schedule: Q01DX001 (ip), vehicle: distilled water + Tween-80 115 % of control

CC(=O)Oc1c(Br)cc2cc(Br)ccc2c1Br
inactive: [9] 90 % of control | dose: 200.0 mg/kg/injection, schedule: Q04DX002 (ip), vehicle: saline with Tween-80 98 % of control | dose: 400.0 mg/kg/injection, schedule: Q04DX002 (ip), vehicle: saline with Tween-80 98 % of control

C=CCN(CC=C)CCNc1cc(C)nc(Nc2nc3ccc(Cl)cc3[nH]2)n1
inactive: [10] 94 % of control | [3] 86 % of control | [11] 92 % of control | [5] 93 % of control | [12] 94 % of control | [7] 100 % of control

CCCCS(=O)C(Cl)(CCC)C(C)(C)O (centres undefined)
inactive: [4] 97 % of control | [6] 93 % of control | [8] 97 % of control

CCOC(=O)c1ccc(NC(=S)NC(=O)c2ccc(Cl)cc2Cl)cc1
inactive: [4] 100 % of control | [6] 91 % of control | [8] 91 % of control

OC(Cc1nc2ccccc2s1)(C(F)(F)F)C(F)(F)F
inactive: [3] 96 % of control | [4] 95 % of control | [5] 93 % of control | [6] 104 % of control | [7] 96 % of control | [8] 97 % of control

Fc1c(F)c(N(c2ccccc2)c2ccccc2)c(F)c(F)c1N(c1ccccc1)c1ccccc1
inactive: [4] 95 % of control | [6] 95 % of control | [8] 93 % of control

Cc1ccc(S(=O)(=O)Oc2ccc(Cl)cc2)cc1
inactive: [3] 101 % of control | [5] 98 % of control | [7] 98 % of control

CC12CCC(=O)CC1CCC1C2CCC2(C)C(C(=O)O)CCC12 (centres undefined)
inactive: [10] 96 % of control | [11] 102 % of control | [12] 96 % of control

CCCCCCC(C)c1cc(C)c(O)c(CN(C)C)c1 (centres undefined)
inactive: [1] 91 % of control | [2] 95 % of control

CN(C)CCNCc1cn(C2CC(O)C(CO)O2)c(=O)[nH]c1=O (centres undefined)
inactive: [13] 105 % of control | [14] 103 % of control | [15] 106 % of control | [16] 103 % of control | [17] 114 % of control

COc1cc(N=Nc2ccccc2C(=O)O)ccc1N(CCCl)CCCl
inactive: dose: 6.25 mg/kg/injection, schedule: Q01DX009 (ip), vehicle: Klucel (hydroxypropylcellulose) (HPC) 99 % of control | dose: 12.5 mg/kg/injection, schedule: Q01DX009 (ip), vehicle: Klucel (hydroxypropylcellulose) (HPC) 108 % of control | dose: 25.0 mg/kg/injection, schedule: Q01DX009 (ip), vehicle: Klucel (hydroxypropylcellulose) (HPC) 123 % of control

Oc1ccc(O)c2c1C1(Cl)C(Cl)=C(Cl)C2(Cl)C1(Cl)Cl
inactive: dose: 100.0 mg/kg/injection, schedule: Q01DX009 (ip), vehicle: other 95 % of control | dose: 200.0 mg/kg/injection, schedule: Q01DX009 (ip), vehicle: other 98 % of control | dose: 400.0 mg/kg/injection, schedule: Q01DX009 (ip), vehicle: other 106 % of control

CN(C)P1(=O)OCC(C(C)(C)C)CO1 (centres undefined)
inactive: dose: 25.0 mg/kg/injection, schedule: Q04DX002 (ip), vehicle: saline with Tween-80 101 % of control and 91 % of control | dose: 50.0 mg/kg/injection, schedule: Q04DX002 (ip), vehicle: saline with Tween-80 97 % of control and 94 % of control | [9] 86 % of control and 94 % of control and 100 % of control

Cc1cn(C2CC3OP(=O)(N(C)C)OCC3O2)c(=O)[nH]c1=O (centres undefined)
inactive: [13] 105 % of control | [14] 100 % of control | [15] 109 % of control | [16] 97 % of control | [17] 103 % of control

O=C(OCC1CCN2CCCC12)c1ccccc1 (centres undefined)
inactive: dose: 12.5 mg/kg/injection, schedule: Q01DX009 (ip), vehicle: saline 88 % of control | [18] 91 % of control | [19] 91 % of control

CC/C(=N/O)c1ccccc1
inactive: [3] 98 % of control | [5] 92 % of control | [7] 103 % of control

OCC1OC(n2ccc3c2ncn2cnnc32)C(O)C1O (centres undefined)
inactive: dose: 6.25 mg/kg/injection, schedule: Q01DX005 (ip), vehicle: water 104 % of control | [13] 103 % of control | [14] 92 % of control | [15] 92 % of control | [16] 92 % of control | [17] 89 % of control | dose: 400.0 mg/kg/injection, schedule: Q01DX005 (ip), vehicle: water 95 % of control

O=c1[nH]c(SCc2ccc(Cl)cc2)nc(-c2ccc(Cl)cc2)c1CCO
inactive: dose: 100.0 mg/kg/injection, schedule: Q01DX009 (ip), vehicle: Klucel (hydroxypropylcellulose) (HPC) 87 % of control | dose: 200.0 mg/kg/injection, schedule: Q01DX009 (ip), vehicle: Klucel (hydroxypropylcellulose) (HPC) 87 % of control | dose: 400.0 mg/kg/injection, schedule: Q01DX009 (ip), vehicle: Klucel (hydroxypropylcellulose) (HPC) 87 % of control

CC(NC(=O)NCCCl)c1ccccc1 (centres undefined)
inactive: [18] 88 % of control | [19] 86 % of control

CNC(=O)N(C)c1ccccc1
inactive: dose: 100.0 mg/kg/injection, schedule: Q04DX002 (ip), vehicle: saline 101 % of control | dose: 200.0 mg/kg/injection, schedule: Q04DX002 (ip), vehicle: saline 101 % of control | dose: 400.0 mg/kg/injection, schedule: Q04DX002 (ip), vehicle: saline 101 % of control

COC(=O)C1(C)CCCC2(C)C3CC4OC4(C(C)C)CC3(O)CCC12 (centres undefined)
inactive: [4] 96 % of control | [6] 96 % of control | [8] 98 % of control

O=c1cc(-c2ccccc2)[nH]c(=S)[nH]1
inactive: [10] 115 % of control | [11] 102 % of control | [12] 97 % of control
